# Target: T1, KRas-G12D (Homo sapiens, UniProt P01116, G12D)
# T1 construct: insert the HiBiT tag onto the N-terminus of one or more of the endogenous KRas alleles; host or cells: AsPC-1 HiBiT-KRasG12D knock-in clone (one tagged allele, two untagged KRasG12D alleles)
# Assay: HiBiT Degradation Assay (G12D), AsPC-1 HiBiT-KRasG12D cells, 24 hr
# Type: cell-based
# Details: for Dmax: ASPC1, AsPC-1 cells, maximum degradation observed; for DC50: AsPC-1 cells
# Procedure, shortened: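 Degradation was read after 24 hr compound exposure (0.5% DMSO, 37° C) by Nano-Glo HiBiT lytic luminescence in AsPC-1 cells carrying a HiBiT tag on one of three KRasG12D alleles. Signal relative to DMSO gave DC50 and Dmax by 4-parameter fit; alamar blue fluorescence monitored cytotoxicity.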
# T1 sequence (P01116 1-188 isoform P01116-2 G12D): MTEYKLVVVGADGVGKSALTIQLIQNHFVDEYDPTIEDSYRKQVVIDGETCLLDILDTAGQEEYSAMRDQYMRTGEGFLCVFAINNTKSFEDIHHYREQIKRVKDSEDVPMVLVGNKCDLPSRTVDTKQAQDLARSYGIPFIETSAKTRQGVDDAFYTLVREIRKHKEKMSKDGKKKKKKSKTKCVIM
Structure (SMILES),Dmax [%],DC50 [µM]
"C#Cc1c(F)ccc2cc(O)cc(-c3ncc4c(N5CC6CCC(C5)N6)nc(OC[C@@H]5C[C@@H](OC6CCN(CC7CCN(c8ccc9c(c8)CN(C8CCC(=O)NC8=O)C9=O)CC7)CC6)CN5CC)nc4c3F)c12 (stereo partly drawn) [Compound 165, 3-(5-{4-[(4-{[(3R,5S)-5-{[(4-{3,8-diazabicyclo[3.2.1]octan-3-yl}-7-(8-ethynyl-7-fluoro-3-hydroxynaphthalen-1-yl)-8-fluoropyrido[4,3-d]pyrimidin-2-yl)oxy]methyl}-1-ethylpyrrolidin-3-yl]oxy}piperidin-1-yl)methyl]piperidin-1-yl}-1-oxo-2,3-dihydro-1H-isoindol-2-yl)piperidine-2,6-dione]",> 70,< 5.1
"C#Cc1c(F)ccc2cc(O)cc(-c3ncc4c(N5CC6CCC(C5)N6)nc(OCCN5CCC(CN6CCC(CC7CCN(c8ccc9c(c8F)n(C)c(=O)n9C8CCC(=O)NC8=O)CC7)CC6)CC5)nc4c3F)c12 (stereo not shown) [Compound 166, 3-{5-[4-({1-[(1-{2-[(4-{3,8-diazabicyclo[3.2.1]octan-3-yl}-7-(8-ethynyl-7-fluoro-3-hydroxynaphthalen-1-yl)-8-fluoropyrido[4,3-d]pyrimidin-2-yl)oxy]ethyl}piperidin-4-yl)methyl]piperidin-4-yl}methyl)piperidin-1-yl]-4-fluoro-3-methyl-2-oxo-2,3-dihydro-1H-1,3-benzodiazol-1-yl}piperidine-2,6-dione]",> 70,< 5.1
"C#Cc1c(F)ccc2cc(O)cc(-c3ncc4c(N5CC6CCC(C5)N6)nc(OCCN5CCC(CN6CCC(CC7CCN(c8ccc9c(c8F)n(C(C)C)c(=O)n9C8CCC(=O)NC8=O)CC7)CC6)CC5)nc4c3F)c12 (stereo not shown) [Compound 167, 3-{5-[4-({1-[(1-{2-[(4-{3,8-diazabicyclo[3.2.1]octan-3-yl}-7-(8-ethynyl-7-fluoro-3-hydroxynaphthalen-1-yl)-8-fluoropyrido[4,3-d]pyrimidin-2-yl)oxy]ethyl}piperidin-4-yl)methyl]piperidin-4-yl}methyl)piperidin-1-yl]-4-fluoro-2-oxo-3-(propan-2-yl)-2,3-dihydro-1H-1,3-benzodiazol-1-yl}piperidine-2,6-dione]",–,< 5.1
"C#Cc1c(F)ccc2cc(O)cc(-c3ncc4c(N5CC6CCC(C5)N6)nc(OCCN5CCC(CN6CCN(CC7CCN(c8ccc9c(c8F)CN(C8CCC(=O)NC8=O)C9=O)CC7)CC6)CC5(C)C)nc4c3F)c12 (stereo not shown) [Compound 168, 3-{5-[4-({4-[(1-{2-[(4-{3,8-diazabicyclo[3.2.1]octan-3-yl}-7-(8-ethynyl-7-fluoro-3-hydroxynaphthalen-1-yl)-8-fluoropyrido[4,3-d]pyrimidin-2-yl)oxy]ethyl}-2,2-dimethylpiperidin-4-yl)methyl]piperazin-1-yl}methyl)piperidin-1-yl]-4-fluoro-1-oxo-2,3-dihydro-1H-isoindol-2-yl}piperidine-2,6-dione]",> 70,< 5.1
"C#Cc1c(F)ccc2cc(O)cc(-c3ncc4c(N5CC6CCC(C5)N6)nc(OCCN5CCC(CN6CCN(CC7CCN(c8ccc9c(c8F)CN(C8CCC(=O)NC8=O)C9=O)CC7)C(C)(C)C6)CC5)nc4c3F)c12 (stereo not shown) [Compound 169, 3-{5-[4-({4-[(1-{2-[(4-{3,8-diazabicyclo[3.2.1]octan-3-yl}-7-(8-ethynyl-7-fluoro-3-hydroxynaphthalen-1-yl)-8-fluoropyrido[4,3-d]pyrimidin-2-yl)oxy]ethyl}piperidin-4-yl)methyl]-2,2-dimethylpiperazin-1-yl}methyl)piperidin-1-yl]-4-fluoro-1-oxo-2,3-dihydro-1H-isoindol-2-yl}piperidine-2,6-dione]",> 70,< 5.1
"C#Cc1c(F)ccc2cc(O)cc(-c3ncc4c(N5CC6CCC(C5)N6)nc(OCCN5CCC(CN6CCC(CC7CCN(c8cc(C)c9c(c8F)CN(C8CCC(=O)NC8=O)C9=O)CC7)CC6)CC5)nc4c3F)c12 (stereo not shown) [Compound 170, 3-{5-[4-({1-[(1-{2-[(4-{3,8-diazabicyclo[3.2.1]octan-3-yl}-7-(8-ethynyl-7-fluoro-3-hydroxynaphthalen-1-yl)-8-fluoropyrido[4,3-d]pyrimidin-2-yl)oxy]ethyl}piperidin-4-yl)methyl]piperidin-4-yl}methyl)piperidin-1-yl]-4-fluoro-7-methyl-1-oxo-2,3-dihydro-1H-isoindol-2-yl}piperidine-2,6-dione]",> 70,< 5.1
"CCc1c(F)ccc2cc(O)cc(-c3ncc4c(N5CC6CCC(C5)N6)nc(OCCN5CCC6(CC5)CCN(CC5CCN(c7ccc8c(c7)n(C)c(=O)n8C7CCC(=O)NC7=O)CC5)CC6)nc4c3F)c12 (stereo not shown) [Compound 171, 3-(5-{4-[(9-{2-[(4-{3,8-diazabicyclo[3.2.1]octan-3-yl}-7-(8-ethyl-7-fluoro-3-hydroxynaphthalen-1-yl)-8-fluoropyrido[4,3-d]pyrimidin-2-yl)oxy]ethyl}-3,9-diazaspiro[5.5]undecan-3-yl)methyl]piperidin-1-yl}-3-methyl-2-oxo-2,3-dihydro-1H-1,3-benzodiazol-1-yl)piperidine-2,6-dione]",> 70,< 5.1
"CCc1c(F)ccc2cc(O)cc(-c3ncc4c(N5CC6CCC(C5)N6)nc(OCCN5CCC(CC6CCN(CC7CCN(c8cccc9c8n(C)c(=O)n9C8CCC(=O)NC8=O)CC7)CC6)CC5)nc4c3F)c12 (stereo not shown) [Compound 172, 3-{4-[4-({4-[(1-{2-[(4-{3,8-diazabicyclo[3.2.1]octan-3-yl}-7-(8-ethyl-7-fluoro-3-hydroxynaphthalen-1-yl)-8-fluoropyrido[4,3-d]pyrimidin-2-yl)oxy]ethyl}piperidin-4-yl)methyl]piperidin-1-yl}methyl)piperidin-1-yl]-3-methyl-2-oxo-2,3-dihydro-1H-1,3-benzodiazol-1-yl}piperidine-2,6-dione]",> 70,< 5.1
"C#Cc1c(F)ccc2cc(O)cc(-c3ncc4c(N5CC6CCC(C5)N6)nc(OCCN5CCN(CC6CCN(CC7CCN(c8ccc9c(c8)n(C)c(=O)n9C8CCC(=O)NC8=O)CC7)CC6)CC5)nc4c3F)c12 (stereo not shown) [Compound 173, 3-{5-[4-({4-[(4-{2-[(4-{3,8-diazabicyclo[3.2.1]octan-3-yl}-7-(8-ethynyl-7-fluoro-3-hydroxynaphthalen-1-yl)-8-fluoropyrido[4,3-d]pyrimidin-2-yl)oxy]ethyl}piperazin-1-yl)methyl]piperidin-1-yl}methyl)piperidin-1-yl]-3-methyl-2-oxo-2,3-dihydro-1H-1,3-benzodiazol-1-yl}piperidine-2,6-dione]",> 70,< 5.1
"C#Cc1c(F)ccc2cc(O)cc(-c3ncc4c(N5CC6CCC(C5)N6)nc(OCCN5CCN(CC6CCN(CC7CCN(c8ccc9c(c8F)CN(C8CCC(=O)NC8=O)C9=O)CC7)CC6)CC5(C)C)nc4c3F)c12 (stereo not shown) [Compound 174, 3-{5-[4-({4-[(4-{2-[(4-{3,8-diazabicyclo[3.2.1]octan-3-yl}-7-(8-ethynyl-7-fluoro-3-hydroxynaphthalen-1-yl)-8-fluoropyrido[4,3-d]pyrimidin-2-yl)oxy]ethyl}-3,3-dimethylpiperazin-1-yl)methyl]piperidin-1-yl}methyl)piperidin-1-yl]-4-fluoro-1-oxo-2,3-dihydro-1H-isoindol-2-yl}piperidine-2,6-dione]",> 70,< 5.1
